Data: US7786113B2, “Heterocyclic carbamate derivatives, their manufacture and use as pharmaceutical agents” (Hoffman-La Roche Inc., priority 2004, dated 2010)

Legend:
[1] = target: T1, Src (p60^c-src) (Homo sapiens, UniProt P12931); assay: SRC-Inhibitor-Assay (time-resolved fluorescence kinase assay), Src; assay type: biochemical; settings: ATP 5 μM, peptide 10 μM, enzyme 2.5 U/ml, pH 7.3
T1 construct: purchased UBI, Upstate Biotech, Inc
Text: (§1) The activity of the compounds according to this invention as inhibitors for the src-family tyrosine kinases was shown by using the following assay.
(§2) ATP, Tween™ 20, 4-(2-hydroxyethyl)-1-piperazineethanesulfonic acid (HEPES) were purchased from Roche Molecular Biochemicals, MgCl2 and MnCl2 were purchased from Merck Eurolab, Tris(2-carboxyethyl)phosphine hydrochloride (TCEP) was purchased from Pierce, 384 Well low volume fluorescence plates was purchased from Falcon.
(§3) At first the enzyme is pre-incubated for 15 min. at 15° C. in aqueous solution with corresponding amounts of inhibitors according to this invention. Then the phosphorylation reaction is started by adding a reaction mixture, containing ATP, Peptide and PT66, and subsequent shaking. The proceeding of this reaction is immediately monitored using time resolved fluorescence spectroscopy in a suitable well plate reader.
(§4) The IC50-values can be obtained from the reaction rates by using a non-linear curve fit (XLfit software (ID Business Solution Ltd., Guilford, Surrey, UK))

[2] = target: T2, Lck (p56^lck) (Homo sapiens, UniProt P06239); assay: SRC-Inhibitor-Assay (time-resolved fluorescence kinase assay), Lck; assay type: biochemical; settings: ATP 5 μM, peptide 10 μM, enzyme 2.5 U/ml, pH 7.3
T2 construct: purchased UBI, Upstate Biotech, Inc
T2 sequence (P06239 whole entry): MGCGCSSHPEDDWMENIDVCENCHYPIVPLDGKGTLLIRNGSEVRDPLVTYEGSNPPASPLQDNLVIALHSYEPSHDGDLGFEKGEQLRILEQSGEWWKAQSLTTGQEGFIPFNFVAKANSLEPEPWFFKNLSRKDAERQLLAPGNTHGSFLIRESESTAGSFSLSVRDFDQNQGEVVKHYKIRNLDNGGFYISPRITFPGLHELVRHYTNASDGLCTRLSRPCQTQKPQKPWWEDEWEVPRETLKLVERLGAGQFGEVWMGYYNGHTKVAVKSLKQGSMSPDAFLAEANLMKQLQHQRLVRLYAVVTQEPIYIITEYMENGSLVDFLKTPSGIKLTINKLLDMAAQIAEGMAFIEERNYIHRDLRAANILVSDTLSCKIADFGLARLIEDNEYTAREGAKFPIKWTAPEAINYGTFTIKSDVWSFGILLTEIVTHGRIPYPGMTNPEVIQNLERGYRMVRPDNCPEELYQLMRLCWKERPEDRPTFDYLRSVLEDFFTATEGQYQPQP
Text: as §1, §2, §3, §4

T1 sequence (P12931 whole entry): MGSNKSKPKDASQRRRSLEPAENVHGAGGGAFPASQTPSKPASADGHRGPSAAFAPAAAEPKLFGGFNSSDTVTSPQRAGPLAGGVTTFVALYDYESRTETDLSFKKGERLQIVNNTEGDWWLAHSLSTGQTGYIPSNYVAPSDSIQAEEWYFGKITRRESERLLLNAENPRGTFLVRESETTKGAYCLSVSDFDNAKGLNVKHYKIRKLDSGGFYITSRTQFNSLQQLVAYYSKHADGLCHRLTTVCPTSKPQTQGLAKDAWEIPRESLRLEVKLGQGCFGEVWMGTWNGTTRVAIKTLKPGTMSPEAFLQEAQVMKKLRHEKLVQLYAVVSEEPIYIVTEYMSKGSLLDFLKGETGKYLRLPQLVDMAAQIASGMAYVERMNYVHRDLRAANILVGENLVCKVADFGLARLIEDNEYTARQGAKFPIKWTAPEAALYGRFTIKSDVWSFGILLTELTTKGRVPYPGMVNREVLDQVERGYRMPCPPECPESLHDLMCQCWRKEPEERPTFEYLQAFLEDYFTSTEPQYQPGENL

| melting point | IC50 [1] [nM] | IC50 [2] [nM] | SMILES |
| --- | --- | --- | --- |
| 342 °C (dec.) | – | – | CC(C)OC(=O)Nc1cnc2[nH]c(-c3ccsc3)nc2c1 [Example 2-7, (2-Thiophen-3-yl-3H-imidazo[4,5-b]pyridin-6-yl)-carbamic acid isopropyl ester] |
| – | 10 to 500 | 100 to 9000 | CC(=O)Nc1cccc(-c2cc3cc(NC(=O)OCc4ccccc4)cnc3[nH]2)c1 [Example 9-23, [2-(3-Acetylamino-phenyl)-1H-pyrrolo[2,3-b]pyridin-5-yl]-carbamic acid benzyl ester] |
| – | 10 to 500 | 100 to 9000 | CC(=O)Nc1ccc(-c2cc3cc(NC(=O)OCC(C)(C)C)cnc3[nH]2)cc1 [Example 9-25, [2-(4-Acetylamino-phenyl)-1H-pyrrolo[2,3-b]pyridin-5-yl]-carbamic acid 2,2-dimethyl-propyl ester] |
| – | 10 to 500 | 100 to 9000 | CC(=O)Nc1cccc(-c2cc3cc(NC(=O)OCC(C)C)cnc3[nH]2)c1 [Example 9-28, [2-(3-Acetylamino-phenyl)-1H-pyrrolo[2,3-b]pyridin-5-yl]-carbamic acid isobutyl ester] |
| – | 10 to 500 | 100 to 9000 | CC(C)OC(=O)Nc1cnc2[nH]c(-c3ccc(F)c(F)c3)nc2c1 [Example 10-1, [2-(3,4-Difluoro-phenyl)-3H-imidazo[4,5-b]pyridin-6-yl]-carbamic acid isopropyl ester] |
| – | 10 to 500 | 100 to 9000 | COCCN(CCOC)c1ccc(-c2nc3cc(NC(=O)OC(C)C)cnc3[nH]2)cc1F [Example 10-2, (2-{4-[Bis-(2-methoxy-ethyl)-amino]-3-fluoro-phenyl}-3H-imidazo[4,5-b]pyridin-6-yl)-carbamic acid isopropyl ester] |
| – | 500 to 1500 | 2000 to 9000 | CC(C)OC(=O)Nc1cnc2[nH]c(-c3cccc(C(=O)O)c3)nc2c1 [Example 11-1, 3-(6-Isopropoxycarbonylamino-3H-imidazo[4,5-b]pyridin-2-yl)-benzoic acid] |
| – | 10 to 500 | 100 to 9000 | COCC(COC)NC(=O)c1cccc(-c2nc3cc(NC(=O)OC(C)C)cnc3[nH]2)c1 [Example 11-2, {2-[3-(2-Methoxy-1-methoxymethyl-ethylcarbamoyl)-phenyl]-3H-imidazo[4,5-b]pyridin-6-yl}-carbamic acid isopropyl ester] |
| – | 10 to 500 | 100 to 9000 | COCCCNC(=O)c1cccc(-c2nc3cc(NC(=O)OC(C)C)cnc3[nH]2)c1 [Example 11-3, {2-[3-(3-Methoxy-propylcarbamoyl)-phenyl]-3H-imidazo[4,5-b]pyridin-6-yl}-carbamic acid isopropyl ester] |
| – | 10 to 500 | 100 to 9000 | CC(C)OC(=O)Nc1cnc2[nH]c(-c3ccnc(Cl)c3)nc2c1 [Example 12-1, [2-(2-Chloro-pyridin-4-yl)-3H-imidazo[4,5-b]pyridin-6-yl]-carbamic acid isopropyl ester] |
